{"source": "patent US20230139056A1", "about": "“METHODS, COMPOSITIONS AND REAGENTS FOR PREPARING COMPOUNDS” (Regents of the University of Minnesota, priority 2021, published 2023)", "target": "T1, SyrB2 halogenase (Pseudomonas syringae pv. syringae, UniProt Q9RBY6)", "T1 construct": "His-tag (inferred from the pET-28a(+) vector and Ni HisTrap purification); made in house; host or cells: E. coli BL21-Gold (DE3)", "T1 sequence (Q9RBY6 whole entry)": "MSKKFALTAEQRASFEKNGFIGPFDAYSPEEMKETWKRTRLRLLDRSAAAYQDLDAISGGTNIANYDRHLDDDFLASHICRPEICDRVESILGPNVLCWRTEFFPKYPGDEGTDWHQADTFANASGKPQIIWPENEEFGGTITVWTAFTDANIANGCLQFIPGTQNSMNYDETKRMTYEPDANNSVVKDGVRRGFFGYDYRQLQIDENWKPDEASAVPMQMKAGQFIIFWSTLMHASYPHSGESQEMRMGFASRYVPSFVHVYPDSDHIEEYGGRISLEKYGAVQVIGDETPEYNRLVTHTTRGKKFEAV", "experiment": "Fluorination assay of Thr by SyrB2 halogenase with ligator (LC-MS/MS)", "assay_type": "biochemical", "method": "In an anaerobic glovebag (98% N2/2% H2, Coy Laboratories), all plasticware, solutions, and solids were allowed to equilibrate overnight before use. Stock solutions of RXN buffer (20 mM HEPES, pH=7.5), 20G (100 mM in RXN buffer, pH=7.5), NOG (150 mM in RXN buffer, pH=7.5), and Milli-Q water were degassed using a vacuum manifold on a Schlenk Line apparatus. At least three cycles of vacuum and subsequent equilibration with Argon gas were performed before transfer to the glovebag. Halide Salts (NaCl, NaF) and ferrous ammonium sulfate (FAS) were transferred to the glovebag the day before use.\nStock SyrB1-PPT-Thr and SyrB2 were thawed on ice-water and centrifuged to remove any possible precipitate. Stock proteins were diluted in RXN buffer and transferred to individual ReactiVials (Thermo) sealed with septa on a pre-cooled ReactiBlock (Thermo). Protein was deoxygenated by piercing the ReactiVials with needles and purging the headspace with a continuous flow of Argon gas for 1 hr while continuously stirring the protein solution on ice bath. Reactivials were sealed and transferred to the glovebag. While deoxygenating the protein, halide salts were dissolved in RXN buffer in the glovebag. To individual 1.7 mL tubes, RXN buffer, ligand (NOG or 2OG), and halide (NaCl or NaF) were added and cooled to 4° C. The ReactiVials containing the proteins were sealed and transferred to the glovebag. […]", "data": [{"smiles": "O=C(O)CNC(=O)C(=O)O", "note": "[NOG, N-oxalylglycine]", "values": [{"measurement": "side products (hydroxylated substrates) observed", "setting": "in some of the reaction conditions with ligator", "result": "little to no side products"}, {"measurement": "fluorination of Thr amino acid by SyrB2 halogenase", "setting": "ligator 1 mM, NaF 10 mM, LC-MS/MS (FIG. 3)", "result": "enabling fluorination of Thr amino acid"}]}]}
